# Assay results from patent publication US20140377340A1, “HLA-DR BINDING PEPTIDES AND THEIR USES” (priority 2007, published 2014).
# Ends that are not written are not given here.
# What was measured:
# purified HLA DRB1*0101 = target: T1, purified HLA DRB1*0101 (Homo sapiens, UniProt P01903+P01911, A100R/D57E/F55L/F60I/F76Y/I96L/L162R/M171V/P40L/Q125E/R42F/V115G/Y59C); experiment: HLA-DR radioligand binding inhibition assay, DRB1*0101; details: IC50 nM purified HLA DRB1 *0101, purified HLA DRB1*0101
# T1 construct: purified from EBV transformed homozygous cell lines or single MHC allele transfected 721.221, C1R, or fibroblast lines; made in house
# Procedure: (§1) Instead, wells of an opaque white 96-well Optiplate (Packard) are coated with 3 μg (100 μl@ 30 μg/ml) of HLA-specific antibody (Ab) that “capture” complexes of radiolabeled MHC and unlabeled peptide transferred from the molecular binding assay plate in 100 μl of 0.05% NP40/PBS. After a 3-hour incubation period, the supernatant is decanted and scintillation fluid (Microscint 20) added. Captured complexes are then measured on a microplate scintillation and luminescence counter (TopCount NXTTM; Packard).
# (§2) HLA-DR purification. Fifteen distinct HLA-DR molecules were used in quantitative assays to measure the binding of peptides to solubilized HLA-DR molecules. […] Briefly, columns of inactivated Sepharose CL4B and Protein A Sepharose were used as pre-columns. HLA-DR molecules were captured by passage of lysates over LB3.1 monoclonal antibody (anti-HLA-DRA) columns. Antibody columns were washed with 10 mM Tris-HCL, pH8.0 with 1% (v/v) NP-40, followed by PBS containing 0.4% (w/v) n-octylglucoside.
# (§3) Briefly, 1-10 nM of radiolabeled peptide was co-incubated for 2 days at either room temperature or 37° C. with 1 μM to 1 nM purified HLA-DR molecules in the presence of a cocktail of protease inhibitors. Assays were performed at various pH conditions, ranging from pH 4 to pH 7. […] After incubation, the percentage of HLA-DR-bound radioactivity is determined by capturing HLA-DR/peptide complexes on Optiplates (Packard Instruments, Meriden, Conn.) coated with the LB3.1 antibody and determining bound counts per minute using the TopCount microscintillation counter (Packard Instruments).
# purified HLA DRB1*0405 = target: T2, purified HLA DRB1*0405 (Homo sapiens, UniProt P01903+P01911, A100R/A169T/D86S/F76Y/I96L/K127E/L162R/M171V/N62H/P40V/Q125Y/R42H/S133A/S149N/S66Y/V115G/V209L/W38E); experiment: HLA-DR radioligand binding inhibition assay, DRB1*0405; details: IC50 nM purified HLA DRB1 *0405, purified HLA DRB1*0405
# T2 construct: purified from EBV transformed homozygous cell lines or single MHC allele transfected 721.221, C1R, or fibroblast lines; made in house
# Procedure: as §1, §2, §3
# purified HLA DRB5*0101 = target: T3, purified HLA DRB5*0101 (Homo sapiens, UniProt P01903+Q30154); experiment: HLA-DR radioligand binding inhibition assay, DRB5*0101; details: IC50 nM purified HLA DRB5 *0101, purified HLA DRB5*0101
# T3 construct: purified from EBV transformed homozygous cell lines or single MHC allele transfected 721.221, C1R, or fibroblast lines; made in house
# Procedure: as §1, §2, §3
# purified HLA DRB1*0401 = target: T4, purified HLA DRB1*0401 (Homo sapiens, UniProt P01903+P01911, A100K/A169T/F76Y/I96L/K127E/L162R/M171V/N62H/P40V/Q125Y/R42H/S133A/S149N/S66Y/V115G/V209L/W38E); experiment: HLA-DR radioligand binding inhibition assay, DRB1*0401; details: IC50 nM purified HLA DRB1 *0401, purified HLA DRB1*0401
# T4 construct: purified from EBV transformed homozygous cell lines or single MHC allele transfected 721.221, C1R, or fibroblast lines; made in house
# Procedure: as §1, §2, §3
# purified HLA DRB1*0701 = target: T5, purified HLA DRB1*0701 (Homo sapiens, UniProt P01903+P01911, A100R/A102G/A103Q/D57E/D86V/E43K/F76Y/K127E/L162R/M171V/P40G/Q125H/Q99D/R33Q/R42Y/R54Q/S133A/S66F/T210M/V115G/Y107V/Y59L/Y89S); experiment: HLA-DR radioligand binding inhibition assay, DRB1*0701; details: IC50 nM purified HLA DRB1 *0701, purified HLA DRB1*0701
# T5 construct: purified from EBV transformed homozygous cell lines or single MHC allele transfected 721.221, C1R, or fibroblast lines; made in house
# Procedure: as §1, §2, §3
# purified HLA DRB1*1302 = target: T6, purified HLA DRB1*1302 (Homo sapiens, UniProt P01903+P01911, A100E/A169T/K41T/L162R/M171V/P40S/Q125H/Q178H/Q39Y/Q99D/R42S/S66N/T262R/V115G/W38E/Y61H); experiment: HLA-DR radioligand binding inhibition assay, DRB1*1302
# T6 construct: purified from EBV transformed homozygous cell lines or single MHC allele transfected 721.221, C1R, or fibroblast lines; made in house
# Procedure: as §1, §2, §3
# purified HLA DRB1*1101 = target: T7, purified HLA DRB1*1101 (Homo sapiens, UniProt P01903+P01911, A100R/A169T/A87E/I96F/K41T/L162R/M171V/P40S/Q125H/Q178H/Q39Y/Q99D/R42S/S66Y/T262R/V115G/W38E); experiment: HLA-DR radioligand binding inhibition assay, DRB1*1101; details: IC50 nM purified HLA DRB1 *1101, purified HLA DRB1*1101
# T7 construct: purified from EBV transformed homozygous cell lines or single MHC allele transfected 721.221, C1R, or fibroblast lines; made in house
# Procedure: as §1, §2, §3
# T7 sequence (P01903 26-254, other chains not shown): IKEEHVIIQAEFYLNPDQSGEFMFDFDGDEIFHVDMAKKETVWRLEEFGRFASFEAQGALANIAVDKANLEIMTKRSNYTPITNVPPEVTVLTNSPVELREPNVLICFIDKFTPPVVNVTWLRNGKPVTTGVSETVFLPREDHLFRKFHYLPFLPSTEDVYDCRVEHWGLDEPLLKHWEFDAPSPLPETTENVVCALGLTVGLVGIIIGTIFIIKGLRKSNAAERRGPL
Molecule,IC50 (purified HLA DRB1*0101) [nM],IC50 (purified HLA DRB1*0405) [nM],IC50 (purified HLA DRB5*0101) [nM],IC50 (purified HLA DRB1*0401) [nM],IC50 (purified HLA DRB1*0701) [nM],IC50 (purified HLA DRB1*1302) [nM],IC50 (purified HLA DRB1*1101) [nM]
CC(C)C[C@H](NC(=O)[C@H](C)NC(=O)[C@H](CC(C)C)NC(=O)[C@@H](N)CC(C)C)C(=O)N[C@@H](CC(C)C)C(=O)N1CCC[C@H]1C(=O)N1CCC[C@H]1C(=O)NCC(=O)N[C@@H](C)C(=O)N[C@@H](C)C(=O)N[C@@H](CO)C(=O)N[C@H](C(=O)N[C@@H](CCC(N)=O)C(=O)N[C@H](C(=O)N[C@@H](CS)C(=O)O)C(C)C)[C@@H](C)O [Peptide 1622.02],17,> 20000,17,,,,
PDSLPDLSVFQNLQV [Peptide 9019.0051],> 20000,,,> 20000,> 20000,> 20000,
CC[C@H](C)[C@H](NC(=O)[C@@H](NC(=O)[C@@H]1CCCN1C(=O)[C@H](C)N)[C@@H](C)O)C(=O)N[C@@H](CO)C(=O)N1CCC[C@H]1C(=O)N[C@@H](CC(C)C)C(=O)N[C@@H](CC(N)=O)C(=O)N[C@H](C(=O)N[C@@H](CO)C(=O)N[C@@H](Cc1ccc(O)cc1)C(=O)N[C@@H](CCCNC(=N)N)C(=O)N[C@@H](CO)C(=O)NCC(=O)N[C@@H](CCC(=O)O)C(=O)O)[C@@H](C)O [Peptide 9019.0121],2430,5990,,295,,125,
CC[C@H](C)[C@H](NC(=O)[C@H](CCC(N)=O)NC(=O)[C@H](CCSC)NC(=O)[C@H](CS)NC(=O)[C@H](Cc1c[nH]c2ccccc12)NC(=O)[C@H](CC(N)=O)NC(=O)[C@H](CC(C)C)NC(=O)[C@@H](N)CC(C)C)C(=O)N[C@@H](C)C(=O)N[C@@H](CCCCN)C(=O)NCC(=O)N[C@@H](CCSC)C(=O)N[C@@H](CO)C(=O)N[C@@H](Cc1ccc(O)cc1)C(=O)N[C@@H](CC(C)C)C(=O)O [Peptide 9019.0082],,,92,,380,,
CC[C@H](C)[C@H](NC(=O)[C@H](CCCNC(=N)N)NC(=O)[C@@H](N)CCSC)C(=O)N[C@@H](CC(C)C)C(=O)N[C@@H](CCCCN)C(=O)N[C@@H](CCC(=O)O)C(=O)N[C@H](C(=O)N[C@@H](CCC(=O)O)C(=O)N[C@@H](CC(C)C)C(=O)N[C@@H](CCCNC(=N)N)C(=O)N[C@@H](CCCCN)C(=O)N[C@H](C(=O)N[C@@H](CCCCN)C(=O)N[C@H](C(=O)N[C@@H](CC(C)C)C(=O)O)C(C)C)C(C)C)[C@@H](C)O [Peptide 9019.0072],,,,,,,2130
CC[C@H](C)[C@H](NC(=O)[C@H](CC(C)C)NC(=O)[C@H](C)NC(=O)[C@H](CC(C)C)NC(=O)CN)C(=O)N[C@@H](Cc1c[nH]cn1)C(=O)N[C@@H](Cc1c[nH]cn1)C(=O)N[C@@H](CC(N)=O)C(=O)N[C@H](C(=O)N[C@@H](Cc1c[nH]cn1)C(=O)N[C@@H](CC(C)C)C(=O)N[C@@H](CS)C(=O)N[C@@H](Cc1ccccc1)C(=O)N[C@H](C(=O)N[C@@H](Cc1c[nH]cn1)C(=O)O)C(C)C)[C@@H](C)O [Peptide 9019.0058],,,,414,,18,2800
ELPLQALVMGEGTCE [Peptide 9019.0182],1500,,,6780,15600,9170,
CSCC[C@H](NC(=O)CNC(=O)[C@H](CC(C)C)NC(=O)[C@H](CC(=O)O)NC(=O)CNC(=O)[C@@H](N)CC(=O)O)C(=O)NCC(=O)N[C@@H](C)C(=O)N[C@@H](C)C(=O)N[C@@H](CCCCN)C(=O)NCC(=O)N[C@@H](CC(C)C)C(=O)N[C@@H](CCC(N)=O)C(=O)N[C@@H](CO)C(=O)N[C@@H](CC(C)C)C(=O)O [Peptide 9019.0097],110,5800,,,,3230,
CC(C)C[C@H](NC(=O)CNC(=O)[C@H](CC(C)C)NC(=O)[C@H](Cc1c[nH]cn1)NC(=O)[C@H](Cc1c[nH]cn1)NC(=O)[C@H](CCCCN)NC(=O)CN)C(=O)N[C@@H](CCC(=O)O)C(=O)N[C@@H](CCC(=O)O)C(=O)N1CCC[C@H]1C(=O)N[C@@H](CCCCN)C(=O)N[C@@H](CCCCN)C(=O)N[C@@H](CC(C)C)C(=O)N[C@@H](CCCNC(=N)N)C(=O)N1CCC[C@H]1C(=O)O [Peptide 9019.0187],,6480,,,3100,,16800
CC[C@H](C)[C@H](NC(=O)[C@@H](NC(=O)[C@H](CCC(=O)O)NC(=O)[C@H](CCCCN)NC(=O)[C@H](CCSC)NC(=O)[C@H](CCCCN)NC(=O)[C@H](CO)NC(=O)[C@H](C)NC(=O)[C@@H](NC(=O)[C@H](Cc1ccccc1)NC(=O)[C@H](CCSC)NC(=O)[C@H](CS)NC(=O)[C@@H](N)[C@@H](C)O)C(C)C)[C@@H](C)O)C(=O)N1CCC[C@H]1C(=O)N[C@@H](CC(C)C)C(=O)O [Peptide 9019.0157],,,36,,17,,61
CC[C@H](C)[C@H](NC(=O)[C@H](CCCCN)NC(=O)[C@H](CCC(N)=O)NC(=O)[C@@H](N)CCC(N)=O)C(=O)N[C@@H](CCCNC(=N)N)C(=O)N[C@@H](CCCCN)C(=O)N[C@@H](Cc1ccc(O)cc1)C(=O)N[C@H](C(=O)N[C@@H](CCSC)C(=O)N[C@@H](CCCNC(=N)N)C(=O)N[C@@H](CCCNC(=N)N)C(=O)N[C@@H](CC(C)C)C(=O)N[C@@H](CC(C)C)C(=O)N[C@@H](CCC(N)=O)C(=O)N[C@@H](CCC(=O)O)C(=O)O)[C@@H](C)O [Peptide 9019.0070],,,340,,,,
CSCC[C@H](NC(=O)[C@H](CC(C)C)NC(=O)[C@H](CCC(N)=O)NC(=O)[C@@H](NC(=O)[C@@H](NC(=O)[C@H](CC(C)C)NC(=O)[C@H](CCC(N)=O)NC(=O)[C@@H](NC(=O)[C@@H](N)[C@@H](C)O)C(C)C)C(C)C)[C@@H](C)O)C(=O)N1CCC[C@H]1C(=O)N[C@@H](Cc1ccc(O)cc1)C(=O)NCC(=O)N[C@@H](CS)C(=O)N[C@@H](CC(C)C)C(=O)N[C@@H](CC(C)C)C(=O)O [Peptide 9019.0080],,,3000,,,,
LPRVGCPALPLPPPP [Peptide 9019.0173],1910,,,6540,> 20000,8940,
CC[C@H](C)[C@H](NC(=O)[C@@H](NC(=O)[C@H](CCC(=O)O)NC(=O)[C@H](CCCCN)NC(=O)[C@H](CCSC)NC(=O)[C@H](CCCCN)NC(=O)[C@H](CO)NC(=O)[C@H](C)N)[C@@H](C)O)C(=O)N1CCC[C@H]1C(=O)N[C@@H](CC(C)C)C(=O)N[C@H](C(=O)N[C@@H](C)C(=O)N[C@@H](CCC(=O)O)C(=O)N[C@@H](CCCCN)C(=O)N[C@@H](CC(C)C)C(=O)O)[C@@H](C)O [Peptide 9019.0158],130,> 20000,,> 20000,220,550,
